Data published in US4767621A (priority 1982, dated 1988).

Columns and labels:
[1] = system: human T lymphoblastoid cells of the CEM line bearing the antigen T-65
mouse = conditions: intra-peritoneally, Westley 1977; cited from earlier work
[2] = Acute toxicity of monensin, single intra-peritoneal administration (own experiments); format: in vivo, mouse; conditions: mouse, in vivo, ip; single administration intra-peritoneally; read-out: 50% lethal dose, per body weight
Protocol: (§1) Thus the acute toxicity of monensin in a single administration intra-peritoneally in the Charles River France mouse is characterised by a 50% lethal dose of 340 micrograms per mouse, namely 17 mg/kg of body weight.

[3] = system: Charles River France mouse; experiment: as above; format: in vivo; conditions: single administration intra-peritoneally
Protocol: as §1

| Compound | potentiating effect (factor) on the cytotoxicity of immunotoxin anti-T-65 [1] | spontaneous cytotoxicity of the ionophore for the cells employed [1] | 50% lethal dose (LD50) (mouse) [mg/kg] | LD50 [2] [mg/kg] | 50% lethal dose, per mouse [3] [micrograms per mouse] |
| --- | --- | --- | --- | --- | --- |
| CC[C@@H](C(=O)[C@@H](C)[C@@H](O)[C@H](C)CCc1ccc(C)c(O)c1C(=O)O)[C@H]1O[C@](CC)([C@H]2CC[C@](O)(CC)[C@H](C)O2)C[C@@H]1C [Lasalocide, lasalocide] | ~36000 | not spontaneously cytotoxic | 64 | – | – |
| CO[C@@H]1C[C@@H](C[C@H]2CC[C@H](C)[C@H]([C@@H](C)C(=O)O)O2)O[C@]2(O[C@](C)([C@H]3CC[C@@](C)([C@@H]4O[C@@H]([C@H]5O[C@@](O)(CO)[C@H](C)C[C@@H]5C)C[C@@H]4C)O3)C[C@H]2C)[C@@H]1C [Nigericin, nigericin] | ~7000 | not spontaneously cytotoxic | 65 | – | – |
| CC[C@@]1([C@@H]2O[C@@H]([C@H]3O[C@@](O)(CO)[C@H](C)C[C@@H]3C)C[C@@H]2C)CC[C@H]([C@]2(C)CC[C@]3(C[C@H](O)[C@@H](C)[C@@H]([C@@H](C)[C@@H](OC)[C@H](C)C(=O)O)O3)O2)O1 [Monensin, monensin] | ~55000 | not spontaneously cytotoxic | 16.8 | 17 | 340 |
